In paper PMC11681159, “Bee pollen peptides as potent tyrosinase inhibitors with anti-melanogenesis effects in murine b16f10 melanoma cells and zebrafish embryos” (Scientific Reports, 2024):
“Also recorded” adds a separate entry of the source. Ends that are not written are not given here.

Tests used:
B16F10 melanoma cells [1] = test: Cell viability assay (MTT); format: cell-based, mouse; conditions: 72 h
Description: To perform the assay to establish cell viability, a 96-well plate was used for the seeding of the B16F10 cells at 5 × 10^3 cells/well. The cells were then left overnight to allow adherence. The VY-9 peptide at varying concentrations was then used to treat the cells for 72 h. MTT was produced as a 2.5 mg/mL solution in PBS whereupon 10 µL of this MTT solution was introduced to each well before incubating the plate for 4 h at 37 °C inside a humid 5% CO2 incubator. Following this step, the medium was removed the wells, and 200 µL of DMSO was added in its place. Finally, a microplate reader was employed to measure the absorbance for each of the wells at 540 nm, while arbutin (0.2 mM) served as the positive control. Each test was carried out in triplicate, with the findings presented in the form of mean ± standard deviation.

Tyr = test: Western blot, TYR protein; format: cell-based, mouse; conditions: B16F10, 48 h
Description: Western blot analysis was performed to measure TYR (TYR, TRP-1, TRP-2, and MITF) in B16F10 cells in line with the approach discussed by Yoon et al.[65]. whereby the B16F10 cells underwent treatment for 48 h using various peptide amounts ([…]) and also with arbutin (0.2 mM). Following this process, the cells were lysed using NP40 Cell Lysis Buffer with protease inhibitor cocktail supplementation. Next, 12% sodium dodecyl sulfate poly-acrylamide (SDS-PAGE) gel electrophoresis was used to extract equal quantities of protein from each sample, with subsequent transfer to PVD (polyvinylidene fluoride) membranes (Millipore, Bedford, MA, USA). The membrane was blocked overnight with 3% skimmed milk (w/v) in TBST with 0.5% Tween 20 at 4 °C and then washed thrice in TBST. The rabbit polyclonal anti-TYR antibody (dilution 1:1000), anti-TRP-1 antibody (dilution 1:1000), anti-TRP-2 antibody and anti-MITF antibody (dilution 1:1000) obtained from Abcam (USA), were used respectively to detect the TYR, TRP-1, TRP-2, and MITF bands. After thrice washing again in TBST, secondary antibodies (dilution 1:5000) were added to the membranes for 1 h of incubation at room temperature before another triplicate washing in TBST. […] The software facilitated the identification and quantification of protein expression levels.

[2] = test system: TYR in B16F10 melanoma cells; test: Cellular TYR assay; format: cell-based, mouse; conditions: VY-9 1.6 µM, 48 h, L-DOPA, 490 nm
Description: In order to assess the rate of oxidation for L-DOPA, culture flasks were used to first grow B16F10 cells (1 × 10^5 cells/flask) for 24 h. […] Cell harvesting was conducted by trypsinization and the cells were then rinsed twice in cold PBS. In the next step, PBS buffer (0.2 mL, pH 6.8) which contained 1% (w/v) Triton X-100 and 1 mM PMSF was introduced to the lysed cell pellets, whereupon amounts of 100 µL of the lysed cells were added to a 96-well plate by pipette, along with 100 µL of 2 mM L-DOPA. This was followed by a one-hour incubation period while the temperature was maintained at 37 °C. A microplate reader was then used to detect the formation of dopachrome in the mixture at 490 nm. The findings are presented in terms of percentage of the control, while arbutin (0.2 mM) served as the positive control. Each test was carried out in triplicate, with the findings presented in the form of mean ± standard deviation.

B16F10 melanoma cells [3] = test: Melanin content assay in B16F10 cells; format: cell-based, mouse; conditions: VY-9 1.6 µM, 48 h, 405 nm
Description: In order to assess melanin content, culture flasks were used to grow B16F10 cells (1 × 10^5 cells/flask) for 24 h. […] Cell harvesting was conducted by trypsinization and the cells were then rinsed twice in cold PBS. The cell pellets were then dissolved in 0.3 mL of 1 N NaOH to produce solutions which were heated to 90 °C for a one-hour period. The lysates were then placed in a centrifuge for 10 min at 3,000 × g whereupon a microplate reader was used to assess the melanin quantity at 405 nm. The protein content in the supernatant was evaluated using the Bradford protein assay with the findings presented in the form of a percentage of the control. Arbutin (0.2 mM) served as the positive control. Each trial was carried out in triplicate, with results presented in the form of mean ± standard deviation.

mushroom TYR = molecular target: T1, mushroom TYR (Agaricus bisporus, UniProt C7FF04); test: Kinetic study, Lineweaver-Burk, di-phenolase; format: biochemical; conditions: Km rose, Vmax unchanged
T1 construct: purchased Sigma-Aldrich, Merck T3824
T1 sequence (C7FF04 2-392): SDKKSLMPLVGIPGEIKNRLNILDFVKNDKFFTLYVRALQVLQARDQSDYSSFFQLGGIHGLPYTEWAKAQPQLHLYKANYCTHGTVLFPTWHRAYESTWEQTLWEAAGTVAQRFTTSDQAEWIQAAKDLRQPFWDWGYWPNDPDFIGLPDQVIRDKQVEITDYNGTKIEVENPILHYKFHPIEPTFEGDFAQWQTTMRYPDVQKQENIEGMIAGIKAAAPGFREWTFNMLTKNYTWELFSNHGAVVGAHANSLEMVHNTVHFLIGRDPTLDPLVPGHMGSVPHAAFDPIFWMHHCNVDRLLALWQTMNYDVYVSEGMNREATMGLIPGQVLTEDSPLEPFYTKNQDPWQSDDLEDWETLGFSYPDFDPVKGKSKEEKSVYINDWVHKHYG
Description: It is necessary to determine the type of TYR inhibitory activity which takes place. This can be achieved through a modified version of an assay described by Feng et al.[39]. The process starts by dissolving the peptide VY-9 in deionized water at various concentrations (0, 0.25, 0.5, and 1 mM). Each VY-9 peptide sample at each concentration (35 µL) was combined 15 µL of mushroom TYR (333 U/mL in 50 mM PBS pH 6.8) prior to 5 min of incubation at 25 °C. Subsequently, various concentrations of substrate were introduced, namely 0–2 mM L-tyrosine in the case of mono-phenolase, and 0–12 mM L-DOPA for di-phenolase. These new mixtures underwent further incubation for 30 min at the same temperature of 25 °C. Upon completion, a spectrophotometer was used to measure the absorbance and determine the inhibitory activity at 490 nm. Lineweaver-Burk plots were then used in calculating Km and Vmax, the kinetic parameters. Km is indicated by the intersection point on the X-axis while Vmax is indicated by the intersection point on the Y-axis in the mode of TYR inhibition under examination. Construction of the plots linked the substrate concentration reciprocal on the X-axis and the absorbance reciprocal (at 490 nm) on the Y-axis, to represent the starting rate for the enzymatic reaction. […]

## VDGYPAAGY [VY-9, Val-Asp-Gly-Tyr-Pro-Ala- Ala-Gly-Tyr]
B16F10 melanoma cells [1]; 0 to 1.6 µM (abstract: 0.2–1.6 µM)
  cytotoxicity in B16F10 cells: negligible cytotoxicity; also recorded: no clear signs of cytotoxicity
B16F10 melanoma cells [1]; 0 to 1.6 µM, triplicate
  B16F10 cell viability: > 50%
Tyr; 1.6 µM
  TYR protein expression vs control: the expression of all proteins decreased compared to the control
Tyr; western blot
  concentration from which TYR protein expression decreased: 0.4 µM
[2]
  cellular TYR activity, rate of inhibition: 44.88%
B16F10 melanoma cells [3]
  reduction in melanin content: 52.31%
Mushroom TYR
  inhibition type, di-phenolase: competitive inhibitor
